Assay results taken from publication PMC4527344 (Tetrahedron letters, 2015).

Tested on: M. tuberculosis

## CCOC(=O)CSc1nc(N)c2c3c(sc2n1)CC(C(C)(C)C)CC3 (stereo not shown) [CD117]
  CD117-resistant mutants obtained: unable to obtain CD117-resistant mutants
